The source made the active and inactive calls. No cut-off for these calls is given here.
Assays:
[1] = target: T1, Neutrophil elastase (Homo sapiens) (UniProt P08246); experiment: Inhibition of human neutrophil elastase assessed as remaining activity using MeOSuc-AAPV-pNA substrate at 10.5 uM; conditions: TDE = time-dependent effect
T1 sequence (whole entry): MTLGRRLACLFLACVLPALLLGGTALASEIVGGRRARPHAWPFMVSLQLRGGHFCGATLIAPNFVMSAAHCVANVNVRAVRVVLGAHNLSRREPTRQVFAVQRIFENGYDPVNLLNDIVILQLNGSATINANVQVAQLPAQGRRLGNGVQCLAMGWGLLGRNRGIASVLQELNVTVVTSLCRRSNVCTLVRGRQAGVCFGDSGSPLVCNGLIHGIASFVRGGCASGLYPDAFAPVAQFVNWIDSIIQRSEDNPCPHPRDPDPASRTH

Caspase-1 (Homo sapiens) [2] = target: T2, Caspase-1 (Homo sapiens) (UniProt P29466); experiment: Inhibition of caspase 1 using […] substrate
T2 sequence (whole entry): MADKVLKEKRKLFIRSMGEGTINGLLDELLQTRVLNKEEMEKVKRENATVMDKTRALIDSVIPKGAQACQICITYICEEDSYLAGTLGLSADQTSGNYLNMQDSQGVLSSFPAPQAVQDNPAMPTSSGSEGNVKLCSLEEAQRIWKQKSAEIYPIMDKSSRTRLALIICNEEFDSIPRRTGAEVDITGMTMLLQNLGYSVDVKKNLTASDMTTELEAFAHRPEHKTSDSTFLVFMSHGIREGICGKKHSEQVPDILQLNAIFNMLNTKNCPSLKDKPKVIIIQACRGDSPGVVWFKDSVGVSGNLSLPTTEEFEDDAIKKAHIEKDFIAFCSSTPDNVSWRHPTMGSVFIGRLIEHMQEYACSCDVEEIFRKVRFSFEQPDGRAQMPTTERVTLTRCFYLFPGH

[3] = target: T3, Myeloblastin (Homo sapiens) (UniProt P24158); experiment: Inhibition of proteinase 3 after 30 mins
T3 sequence (whole entry): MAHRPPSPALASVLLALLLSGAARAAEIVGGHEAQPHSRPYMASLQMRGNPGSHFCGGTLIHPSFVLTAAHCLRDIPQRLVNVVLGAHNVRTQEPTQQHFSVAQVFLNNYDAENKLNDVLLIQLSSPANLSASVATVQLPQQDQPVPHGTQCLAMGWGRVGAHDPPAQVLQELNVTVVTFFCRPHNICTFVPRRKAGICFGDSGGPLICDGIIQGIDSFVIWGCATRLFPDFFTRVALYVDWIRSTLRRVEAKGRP

Caspase-1 (Homo sapiens) [4] = target: T2, Caspase-1 (Homo sapiens); experiment: Inhibition of caspase 1 by Z-Asp-CH2DCB released from compound using […] substrate after 2 mins in presence of human neutrophil elastase

`CCC[C@H]1C(=O)N(COC(=O)C[C@H](NC(=O)OCc2ccccc2)C(=O)COC(=O)c2c(Cl)cccc2Cl)S(=O)(=O)N1C` was tested, and the inhibition [1] was “tde”, the inhibition (Caspase-1 (Homo sapiens) [2]) was “inactive” and the inhibition [3] was “inactive”. For the same compound, the inhibition (Caspase-1 (Homo sapiens) [4]) was “Active”.

Reference: ChEMBL document CHEMBL1770148, “Dual function inhibitors of relevance to chronic obstructive pulmonary disease” (Bioorg Med Chem Lett, 2011)
